Patent publication EP0465716A1, “Optically active thiazetoquino-line-3-carboxylic acid compound, method for preparation thereof, and a pharmaceutical composition comprising the same” (priority 1990, dated 1992)
Where a name gives a salt, the structure may show the parent alone.

Tests used:
Male mice of ddY strain = experiment: Convulsion inducing activity in combination with fenbufen; settings: thirty minutes after fenbufen 100 mg/kg orally
Experimental: Male mice of ddY strain, 5 weeks old, were used. Fenbufen suspended in 0.5 % carboxymethylcellulose was administered orally at a dose of 100 mg/kg. After thirty minutes, test compounds suspended in 0.5 % carboxymethylcellulose were injected intraperitoneally (i.p.) at a dose of 100 mg/kg or 300 mg/kg.

[1] = system: Klebsiella pneumoniae PCI-602; experiment: MIC, twofold agar dilution method (standard laboratory strain); assay type: cell-based; settings: Klebsiella pneumoniae, PCI602, 18 h
Experimental: Minimum inhibitory concentrations (MIC) of test compounds were determined by the twofold agar dilution method (Chemotherapy, 29(1), 76(1981)). Overnight cultures in Mueller-Hinton broth were suspended by buffered saline gelatin. One loopful of the bacterial suspension (10⁶ or 10⁸ colony-forming units/ml) was incubated onto the plates containing test compounds. The plates were incubated for 18 hrs at 37 °C. The MIC was defined by the lowest concentration of the drug that inhibited visible growth of bacteria.

Structure (SMILES): O=C(O)c1cn(C2CC2)c2cc(N3CCNCC3)c(F)cc2c1=O [Ref. Drug A, ciprofloxacin hydrochloride]
- Number of convulsion induced / Number of animals (Male mice of ddY strain; 100 mg/kg (i.p.)): 4 / 6
- Number of convulsion induced / Number of animals (Male mice of ddY strain; 300 mg/kg (i.p.)): 6 / 6
- MIC [1]: 0.012 µg/mL
